The test system of the assay is CEM cells HIV-1 protection, formazan growth assay. As to the kind of experiment: NCI AIDS Antiviral Assay. To be noted: for IC50: measured here: growth of uninfected CEM cells. In outline: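 Human CEM cells, uninfected and HIV-1-infected, exposed to five drug concentrations; growth measured by soluble formazan assay and scored as percent protection from infection, with protecting compounds retested.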

SMILES strings stand for the structures. Where “and” joins values, the source holds several entries; their conditions need not be identical. Equal entries are not always repeated. Calls of active or inactive are those of the source.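 The calls were made as follows: active = compounds giving half or more protection of infected cells from virus-caused growth loss, again on retest; inactive = the rest.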 Where a SMILES comes first, the peptide text is derived from it. Bridges are numbered along the chain shown (N, C = ends). Roman numbers before positions name the chains, in order. The star is where a group is joined. Boc = CC(C)(C)OC(=O)*; Bn = c1ccc(C*)cc1 A value given as a limit tells only on which side of the number the result lay.

In the case of `Cc1cc(NC(=O)Nc2ccc(N=Nc3cc(S(=O)(=O)[O-])c4cccc(S(=O)(=O)[O-])c4c3)c(C)c2)ccc1N=Nc1cc(S(=O)(=O)[O-])c2cccc(S(=O)(=O)[O-])c2c1.[Ga]`, the EC50 (usually the concentration giving half of the maximal effect) was above 75.9 µM and the IC50 – broadly, the concentration that gives 50% inhibition – came out at 13.5 µM. For the compound `COc1ccc(C)cc1NC(=O)C(Br)C(Br)C(=O)O` (configuration not stated), the EC50 is above 200 µM and the IC50 came out at 13.5 µM. For the compound `COc1cc(C(=O)C/C(CCC(=O)Nc2ccccc2[N+](=O)[O-])=N\NC(N)=O)ccc1O`, the EC50 was above 562 µM and the IC50 turned out to be 525 µM. With `O=c1cc(O)c2ccccc2[nH]1`, the EC50 is above 200 µM and the IC50 was above 200 µM. `C#CC1(O)C(/C=N/O)OC(n2ccc(=O)[nH]c2=O)C1O[Si](C)(C)C(C)(C)C` (configuration not stated): the EC50 is above 200 µM and the IC50 was 72.4 µM.

Take `Nc1nc(Cl)c2ncn(C3OC(CO)CC3F)c2n1` (configuration not stated): the EC50 was above 49 µM and the IC50 was above 49 µM. As for `O=C(O)/C=C/C(=O)NNC(=O)/C=C/C(=O)O`, the EC50 was above 1100 µM and the IC50 was 692 µM. For the compound `C[C@@H]1C[C@H]2[C@@H]3C[C@H](F)C4=CC(=O)C=C[C@]4(C)[C@@]3(F)[C@@H](O)C[C@]2(C)C1C(=O)COC(=O)c1cccc2c(=O)c3ccccc3[nH]c12` (some centres not stated), the EC50 is above 100 µM and the IC50 was determined as 2 µM. With `NC(CSSCC(N)C(=O)NC(Cc1ccccc1)C(=O)O)C(=O)NC(Cc1ccccc1)C(=O)O` (stereo not drawn) (I: H-Cys-Phe-OH / II: H-Cys-Phe-OH; disulfide I:1-II:1; configuration not given here), the EC50 was above 200 µM and the IC50 is above 200 µM. With `CNc1ccc(Cl)cc1S(=O)(=O)c1ccccc1`, the EC50 is 6.03 µM and the IC50 is above 200 µM. For `N#CCCN(CCNc1ccccc1)C(=O)Nc1ccc(NC(=O)N(CCC#N)CCNc2ccccc2)cc1`, the EC50 is above 200 µM and the IC50 is above 200 µM. For the compound `O=c1[nH]c2c(nc1NC13CC4CC(CC(C4)C1)C3)c(=O)oc1ccccc12`, the EC50 is above 2 µM and the IC50 is above 2 µM. For the compound `O=c1oc2cc(O)ccc2c2[nH]c3cc(O)ccc3c12`, the EC50 was above 97.7 µM and the IC50 came to 17 µM. On to `O=C(NNC(=S)Nc1ccc(Cl)cc1)c1cc(-c2ccccc2)nc2ccccc12`, for which the EC50 is above 200 µM and the IC50 came to 8.51 µM. In the case of `CNC(=O)C(CC(C)C)NC(=O)C(C)NC(=O)C(Cc1ccc(OCc2ccccc2)cc1)NC(=O)C(COCc1ccccc1)NC(=O)OC(C)(C)C` (configuration not stated) (Boc-S(Bn)Y(Bn)AL-NHMe; configuration not given here), the EC50 was above 200 µM; the IC50 is 9.55 µM and 13.5 µM. On to `Cn1c(=O)c(N=Nc2c(=O)n(C)c(=O)n3c2[nH]c2ccccc23)c2[nH]c3ccccc3n2c1=O`, for which the EC50 is above 33.9 µM and the IC50 was above 33.9 µM. Consider `C=C1[C@@H]2CC[C@@]3([C@@H](C2)[C@@]24CCC[C@@]5(C)CN(CCO)[C@@H]2O[C@@H]3C[C@H]54)[C@@H]1O`, for which the outcome was inactive.

Take `CCOC(=O)C1C(=O)CC(O)(OCC)C(C(=O)OCC)C1c1ccc(OC)cc1` (configuration not stated): the EC50 was above 200 µM and the IC50 was above 200 µM.

Turning to `COc1cc(COC(=O)N(CC(=O)O)c2ccccc2)c([N+](=O)[O-])cc1OC`, the EC50 is above 646 µM and the IC50 worked out at 295 µM. With `CC1(C)Oc2ccc(NC(=O)CCC(N)C(=O)O)cc2O1` (configuration not stated), the EC50 was 186 µM and the IC50 is above 200 µM. As to `O=[N+]([O-])C(=C/c1cccs1)/C(=C\c1cccs1)[N+](=O)[O-]`, the EC50 was above 200 µM and the IC50 was found to be 1.55 µM. Take `O=C1N=NC(=O)N1c1cc(C(F)(F)F)cc(C(F)(F)F)c1`: the EC50 is above 200 µM and the IC50 worked out at 2.88 µM.

Take `Cn1cnc([N+](=O)[O-])c1Sc1nccn1-c1ccccc1`: the EC50 was above 832 µM and the half-inhibitory concentration (IC50) worked out at 9.33 µM. As for `CCOC(=O)Nc1cc2c(c(N)n1)N=C(CN(C)c1ccccc1)CN2`, the EC50 was above 34.7 µM and the IC50 was 0.0741 µM.

Take `COC(=O)C12CCC(CC1=O)C2(C)C` (configuration not stated): the EC50 is above 251 µM and the IC50 is above 251 µM. In the case of `CC(=O)N(CC(=O)C(=O)NNc1ccoc1)c1ccc(Cl)cc1`, the EC50 was above 200 µM and the IC50 was above 200 µM. With `CN(C)c1nc(N(C)C)nc(N(C)C)n1`, the EC50 was above 34.7 µM and the IC50 was 26.3 µM. With `COC(=O)c1cc(C(=O)OC)c(C/C(=N/NC(N)=S)C(=O)Nc2ccc(Cl)c(Cl)c2)nc1C/C(=N/NC(N)=S)C(=O)Nc1ccc(Cl)c(Cl)c1`, the EC50 was above 200 µM and the IC50 was above 200 µM. Consider `C/C(COc1ccccc1)=N\NC(N)=S`, for which the result was inactive. Consider `CSc1c(C#N)c(=O)[nH]c2n[nH]c(C)c12`, for which the EC50 was above 200 µM and the IC50 is above 200 µM. Regarding `CC1(C)OC(=O)C(=C2CC(c3ccccc3)c3ccccc32)C(=O)O1` (configuration not stated), the result was inactive. Take `Cc1ccc(OC2CC(n3cnc4c(=O)[nH]c(Br)nc43)OC2Oc2ccc(C)cc2)cc1` (configuration not stated): the EC50 is above 200 µM and the IC50 was 25.1 µM.

As to `CN=c1ss/c(=N\C(=S)N(C)C)n1C`, the outcome was inactive. For `S=c1nn[nH]n1-c1ccccc1.[Zn+2]`, the EC50 was above 2.57 µM and the IC50 is above 2.57 µM.

On to `NNc1nnc(-c2nnc(NN)o2)o1`, for which the EC50 is above 200 µM and the IC50 is above 200 µM. On to `Nc1nc(=S)c2c(ncn2CC(O)CO)[nH]1` (configuration not stated), for which the EC50 was 363 µM and the IC50 amounted to 525 µM.

On to `Cc1c(CN2CCN(C)CC2)c(O)c2c(=O)c3c(O)c(CN4CCN(C)CC4)c(O)c4c5c(O)c(CN6CCN(C)CC6)c(O)c6c(=O)c7c(O)c(CN8CCN(C)CC8)c(C)c8c1c2c(c34)c(c78)c65`, for which the EC50 was above 10.2 µM and the IC50 is above 10.2 µM. Take `COc1ccc(C2C3=C(COC3=O)Oc3cc4c(cc32)OCO4)c(OC)c1` (configuration not stated): the EC50 is above 200 µM and the IC50 turned out to be 12.3 µM. For `CC1(C)COC2(c3ccccc3)N(c3ccccc3)C(=O)ON12` (configuration not stated), the EC50 is above 200 µM and the IC50 was above 200 µM. Take `CN(C)CCCC12OC(c3ccccc31)C(O)c1ccccc12` (configuration not stated): the EC50 was above 200 µM and the IC50 is above 200 µM. As for `Nn1c(C23CC4CC(CC(C4)C2)C3)n[nH]c1=S`, the EC50 is 182 µM and the IC50 was above 200 µM. For the compound `OCC1OC(n2cnc(C3=NCCCN3)n2)C(O)C1O` (configuration not stated), the outcome was inactive. Regarding `O=C1Cc2nc(CO)c(CO)c(CO)c2CO1`, the EC50 was above 1050 µM and the IC50 is above 1050 µM. Take `COc1ccc(/C=C\c2cc(OC)c(OC)c(OC)c2)cc1OC(=O)C(N)CCC(=O)O` (configuration not stated): the EC50 was above 447 µM. On to `CC(=O)Oc1c(Cl)cc(C(=CCC[C@H]2CC[C@@]3(C)[C@@H](CC[C@@H]4[C@@H]3CC[C@]3(C)[C@@H](C(C)CCCC(C)C)CC[C@@H]43)C2)c2cc(Cl)c(OC(C)=O)c(C(=O)OCc3ccccc3)c2)cc1C(=O)OCc1ccccc1` (some centres not stated), for which the EC50 was above 200 µM and the IC50 was above 200 µM.

Consider `CC(C)(C)OC(=O)N1CCc2[nH][nH]c(=O)c2C1`, for which the EC50 is above 200 µM and the IC50 is above 200 µM.

As to `COc1ccc(C(=O)C(c2ccc(OC)cc2)C2OC(=O)C(Cl)=C2Cl)cc1` (configuration not stated), the EC50 is above 17.8 µM and the IC50 is above 17.8 µM. Consider `O=C(O/N=C1/CCC/C1=C\c1ccccc1)c1ccc([N+](=O)[O-])cc1`, for which the result was inactive. `O=C1CC(=O)NC(=NN2C(=O)CSC2c2ccccc2)N1` (configuration not stated): the EC50 was above 200 µM and the IC50 was above 200 µM. On to `CCc1ccccc1NC(=O)C(=O)C(C#N)c1ccccc1Cl` (configuration not stated), for which the EC50 was above 380 µM and the 50% inhibitory concentration (IC50) was above 380 µM. Regarding `O=C(NS(=O)(=O)Nc1ccccc1)OC(c1ccccc1)c1ccccc1`, the EC50 was above 200 µM and the IC50 amounted to 70.8 µM. In the case of `COC(=O)[C@@H](Cc1ccccc1)N1O[C@]12CCCC[C@@H]2NC(=O)OC(C)(C)C` (some centres not stated), the EC50 was above 200 µM and the IC50 was found to be 32.4 µM. For the compound `CCCCCN(CCCCC)CC(=O)OCC1(C)CCCC2(C)C3CCC(C(C)C)=CC3=CCC12` (configuration not stated), the EC50 is above 200 µM and the IC50 came to 35.5 µM.

For `COC1C(N(C)C)=C(c2ccccc2)C(=O)N2CCc3ccccc3C12` (configuration not stated), the EC50 is above 200 µM and the IC50 turned out to be 170 µM.

Turning to `CCOC(=O)C(=Cc1ccccc1[N+](=O)[O-])C(=O)OCC`, the EC50 is above 324 µM and the IC50 was found to be 5.89 µM. Regarding `O=C(O)CNCc1c2ccccc2[n+]([O-])c2ccccc12`, the outcome was inactive. Turning to `CC1(CO)COC(C)(C)OC1`, the EC50 was above 1550 µM and the IC50 is 1410 µM.

Regarding `OC[C@@H]1C[C@H](F)[C@H](n2cnc3c(Cl)ncnc32)O1`, the EC50 is above 575 µM and the half-maximal inhibitory concentration (IC50) turned out to be 26.3 µM. The matching figures for `N#Cc1ccc(Oc2nc3ccccc3nc2-c2ccccc2)cc1`: above 200 µM and above 200 µM.

As to `CC1C(=O)N(C)C2(CO)C(=O)O[C@H](C)C12O` (some centres not stated), the outcome was inactive.

In the case of `COC1OC2COc3ccccc3OC2C(NC#N)C1OC` (configuration not stated), the EC50 was above 145 µM and the 50% inhibitory concentration (IC50) worked out at 28.8 µM.

Regarding `COC(=O)Sc1c2sc(C(=O)OC)c(C)c2n2ccccc12`, the result was inactive. Consider `Cc1ccc2c(c1-c1c(C)ccc3c1C(=O)c1ccccc1C3=O)C(=O)c1ccccc1C2=O`, for which the EC50 was above 200 µM and the IC50 worked out at 7.76 µM.

On to `CC(=O)Nc1cc(C)ccc1Cl`, for which the EC50 was above 1350 µM and the IC50 was above 1350 µM. Consider `CC(=O)NC(C)(C)C`, for which the outcome was inactive. As to `COC1OOC(OC)c2ccccc2-c2ccccc21` (configuration not stated), the EC50 is above 200 µM and the IC50 was found to be 12.3 µM. For `O=C(O)/C=C/SCCC(=O)O`, the EC50 was above 1410 µM and the IC50 was above 1410 µM.

The compound `NC(=O)CNC(=O)c1ccccc1SC(=O)NCCBr` showed an EC50 of 2 µM and an IC50 of 10 µM. As to `C/C(O)=C(\C=NC(=S)c1ccncc1)C(=O)Nc1ccccc1C`, the EC50 is above 200 µM and the IC50 is above 200 µM.

The values above are taken from PubChem BioAssay AID179 (DTP/NCI, 2004).
